According to publication PMC3646166, “Comparison of Aqueous and 1-Octanol Solubility as well as Liquid–Liquid Distribution of Acyclovir Derivatives and Their Complexes with Hydroxypropyl-β-Cyclodextrin” (Journal of Solution Chemistry, 2013):
Values after ≈ are worked out from the molar mass of the structure shown. Read-outs that look alike come from different tables or passages of the source.

Tests used:
Format in all cases: physicochemical
[1] = Extraction experiments, 1-octanol-water partition coefficient; details: 25 °C, read-out: Partition coefficient 1-octanol–water, P oc/w (converted)
Description: The equipment described above was also used for the determination of the 1-octanol-water partition coefficients. […] The partition coefficient was evaluated as:1 Poc/w=Coc/Cw where C oc and C w are the molar concentrations of the solute in the 1-octanol and water phases, respectively. The correctness of the P oc/w value of each compound was verified by checking the mass balance of the starting amount of the substance and the total amount of the substance partitioned between the two phases.

[2] = Solubility in buffered cyclodextrin solutions (excess method of Higuchi and Connors); set-up: Stability constant K s of HP-β-CD complex: unit not given here
Description: Solubilities of the studied compounds was ensured according to the excess method of Higuchi and Connors. […] An excess amount of compounds 4-9 and 11-12 was added to 1.5 mL of aqueous phosphate buffer (concentration of buffer was equal 0.067 mol·dm^-3) solutions, (pH = 5.5 or 7.0) containing various concentration of HP-β-CD. The cyclodextrin concentration changed in the range of 10^-3 to 2 × 10^-2 mol·dm^-3. The suspensions were shaken in screw-capped plastic vials in a water bath thermostat with the volume of 60 dm^3 (home made apparatus by IChF PAN) at 25 and 37 °C. After 7 days equilibrium was reached and then the suspensions were centrifuged and the absorbance of the studied compounds was measured by UV-Vis spectrophotometry using a Shimadzu UV 2401 PC Spectrometer equipped with a thermostatically controlled cell compartment. During the measurement of absorbance, a buffered-solution of HP-β-CD, of the same concentration as in the studied solution, was always put as the reference. The average values of at least three independent determinations of the absorbance were used for calculation of the concentrations of the particular acyclovir derivatives. […] The main reason for the low solubility of tricyclic acyclovir derivatives with aromatic groups in water is the high hydrophobicity of these substituents. Use of cyclodextrins, which can include aromatic groups into their cavity, may enhance the aqueous solubility of such compounds. For this purpose we used several cyclodextrins and hydroxypropyl-β-cyclodextrin was chosen as being more efficient for complexating the tricyclic acyclovir derivatives. The investigations were performed, for chosen compounds, in various cyclodextrin HP-β-CD, buffered solutions (pH = 5.5 and 7.0) at 25 and 37 °C. […] Values of the correlation parameters a and b for tricyclic acyclovir derivatives complexed by cyclodextrin are presented in Table 3. […] The stability constants of the inclusion complexes between HP-β-CD and acyclovir derivatives have been calculated according to the Higuchi-Connors method using:3 K=b/C0(1-b) where C 0 is the solubility of the sample in solutions without cyclodextrin, obtained by determination of saturated solution concentration of acyclovir derivative solutions. […] These two values can differ, but in our study are very close to each other.

[3] = Solubility in water or 1-octanol (saturated solutions, UV-Vis); details: for solubility: thermodynamic from solid, water
Description: The sample of substance examined (10 mg or 80 mg for 6-Me-TACV) was placed in a glass ampoule and double-distilled, deionized water (Millipore, Elix 5 purifier), or pure anhydrous 1-octanol (Sigma 99 %) was added. To attain thermodynamic equilibrium, the solute and the solvent were mixed continuously for a minimum of 4 days at a speed of 25 rpm. After the experiment was completed, the sample was centrifuged at 40,000 rpm for 40 min at 25 ± 0.1 °C, the supernatant liquid was collected, diluted, and its concentration determined with a UV–Vis (Varian Carry IE) spectrophotometer. The experiments were repeated at least three times for each solubility.

[4] = buffered HP-β-CD solutions, pH = 5.5, 25 °C
[5] = buffered HP-β-CD solutions, pH = 5.5, 37 °C
[6] = buffered HP-β-CD solutions, pH = 7.0, 25 °C
[7] = buffered HP-β-CD solutions, pH = 7.0, 37 °C
[8] = 25 °C (Table 1), read-out: Solubility in water, C w
[9] = water saturated with 1-octanol, 25 °C, read-out: Solubility in water saturated with 1-octanol, C woc
[10] = 35 °C, read-out: Aqueous solubility, C w
[11] = 45 °C, read-out: Aqueous solubility, C w

| Structure (SMILES) | logP at 2 days [1] | Correlation parameter a (Eq. 2, Cs = a + b·CCD) [2, 4] | Correlation parameter b (Eq. 2, Cs = a + b·CCD) [2, 4] | Correlation parameter a (Eq. 2, Cs = a + b·CCD) [2, 5] | Correlation parameter b (Eq. 2, Cs = a + b·CCD) [2, 5] | Correlation parameter a (Eq. 2, Cs = a + b·CCD) [2, 6] | Correlation parameter b (Eq. 2, Cs = a + b·CCD) [2, 6] | Correlation parameter a (Eq. 2, Cs = a + b·CCD) [2, 7] | Correlation parameter b (Eq. 2, Cs = a + b·CCD) [2, 7] | Stability constant K s of HP-β-CD complex ([2]; pH = 5.5, 25 °C) | Stability constant K s of HP-β-CD complex ([2]; pH = 5.5, 37 °C) | Stability constant K s of HP-β-CD complex ([2]; pH = 7, 25 °C) | Stability constant K s of HP-β-CD complex ([2]; pH = 7, 37 °C) | Solubility ratio in 1-octanol and water, C oc/C w ([3]; 25 °C) | Solubility ratio in 1-octanol saturated with water and water saturated with 1-octanol, C ocw/C woc ([3]; 25 °C) | solubility [3, 8] [µM] | solubility [3, 9] [µM] | solubility [3, 10] [µM] | solubility [3, 11] [µM] | Type of solubility diagram (solubility versus cyclodextrin concentration) ([2]; buffered HP-β-CD solutions) |
| --- | --- | --- | --- | --- | --- | --- | --- | --- | --- | --- | --- | --- | --- | --- | --- | --- | --- | --- | --- | --- |
| Cc1cn2c(=O)c3nc(Br)n(COCCO)c3nc2[nH]1 [Compound 6] | -0.108 | 1.18 × 10^−3 | 2.66 × 10^−2 | 2.35 × 10^−3 | 5.94 × 10^−2 | 1.03 × 10^−3 | 2.57 × 10^−2 | 2.01 × 10^−3 | 3.23 × 10^−2 | 27 (±2) dm·mol^−1 | 26 (±2) dm·mol^−1 | 26 (±2) dm·mol^−1 | 17 (±1) dm·mol^−1 | 0.108 | 0.816 | 2110 (≈ 722 µg/mL) | 1050 (≈ 360 µg/mL) | 2360 (≈ 807 µg/mL) | 2590 (≈ 886 µg/mL) |  |
| CC(C)(C)c1cn2c(=O)c3ncn(COCCO)c3nc2[nH]1 [Compound 7] | 0.616 |  |  |  |  |  |  |  |  |  |  |  |  | 5.16 | 2.62 | 3080 (≈ 940 µg/mL) | 3780 (≈ 1150 µg/mL) | 20400 (≈ 6230 µg/mL) | 31900 (≈ 9740 µg/mL) | An type of solubility diagram |
| O=c1c2ncn(COCCO)c2nc2[nH]c(-c3ccc(Br)cc3)cn12 [Compound 10] | 0.549 |  |  |  |  |  |  |  |  |  |  |  |  | 2.14 | 1.65 | 364 (≈ 147 µg/mL) | 412 (≈ 167 µg/mL) | 898 (≈ 363 µg/mL) | 1280 (≈ 517 µg/mL) |  |
| Nc1nc(O)c2ncn(COC(CO)CO)c2n1 [Compound 3, 9-[(1,3-dihydroxy-2-propoxy)methyl]guanine, reference compound] | -1.77 |  |  |  |  |  |  |  |  |  |  |  |  |  |  | 12300 (≈ 3140 µg/mL) | 11000 (≈ 2810 µg/mL) | 21800 (≈ 5560 µg/mL) | 22900 (≈ 5840 µg/mL) |  |
| O=c1c2ncn(COCCO)c2nc2[nH]c(-c3ccccc3)cn12 [Compound 8] | 0.545 | 1.86 × 10^−4 | 2.22 × 10^−2 | 3.27 × 10^−4 | 3.57 × 10^−2 | 2.50 × 10^−4 | 2.60 × 10^−2 | 3.36 × 10^−4 | 3.60 × 10^−2 | 122 (±2) dm·mol^−1 | 113 (±10) | 107 (±8) | 105 (±6) dm·mol^−1 | 7.48 | 4.76 | 238 (≈ 77.4 µg/mL) | 334 (≈ 109 µg/mL) | 517 (≈ 168 µg/mL) | 728 (≈ 237 µg/mL) |  |
| Nc1nc2c(nc(Br)n2COCCO)c(=O)[nH]1 [Compound 2, 8-bromo-9-[(2-hydroxyethoxy)methyl] guanine] | -0.264 |  |  |  |  |  |  |  |  |  |  |  |  | 0.430 | 0.802 | 1030 (≈ 313 µg/mL) | 859 (≈ 261 µg/mL) | 1900 (≈ 578 µg/mL) | 2490 (≈ 757 µg/mL) |  |
